For 43 compounds, EC50 results are on record in patent publication US9284277B2, “Benzazepines as serotonin 5-HT2C receptor ligands and uses thereof” (ABT Holding Company, priority 2012, dated 2016).

Molecules are shown by their SMILES.

The target in one experiment is T1, human 5HT2c receptor (INI isoform) (Homo sapiens, UniProt P28335).
T1 sequence (P28335 33-458): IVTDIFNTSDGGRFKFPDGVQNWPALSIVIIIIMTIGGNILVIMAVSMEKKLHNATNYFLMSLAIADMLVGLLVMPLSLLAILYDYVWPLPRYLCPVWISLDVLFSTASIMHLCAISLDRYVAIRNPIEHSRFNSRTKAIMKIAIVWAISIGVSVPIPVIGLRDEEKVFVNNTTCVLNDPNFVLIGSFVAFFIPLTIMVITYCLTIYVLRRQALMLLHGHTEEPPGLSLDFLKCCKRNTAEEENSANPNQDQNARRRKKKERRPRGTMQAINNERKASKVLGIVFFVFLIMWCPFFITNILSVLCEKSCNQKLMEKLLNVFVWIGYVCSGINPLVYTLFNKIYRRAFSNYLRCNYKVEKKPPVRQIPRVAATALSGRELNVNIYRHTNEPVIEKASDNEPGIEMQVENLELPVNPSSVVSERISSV
Description: Phosphotidyl Inositol Turnover Assay (IP-One Tb kit), agonist potency. The format is cell-based.
Conditions: not given
As to `CCOC1c2c(ccc3c2CCNCC3)CC1(F)F` (stereo not shown) [Example 41, 1-Ethoxy-2,2-difluoro-1,2,3,6,7,8,9,10-octahydro-8-aza-cyclohepta[e]indene], the EC50 is less than 10 nM.
The same measure, in the same setting: in the case of `c1cc2c(c3c1CCC3)CCNCC2` [Example 1, 1,2,3,6,7,8,9,10-Octahydro-8-aza-cyclohepta[e]indene] it was less than 10 nM; in that of `CC1(C)CCc2ccc3c(c21)CCNCC3` [Example 13, 1,1-Dimethyl-1,2,3,6,7,8,9,10-octahydro-8-aza-cyclohepta[e]indene], less than 10 nM.
Same read-out and setting: in the case of `CCCC1CCc2ccc3c(c21)CCNCC3` (stereo not shown) [Example 5, 1-Propyl-1,2,3,6,7,8,9,10-octahydro-8-aza-cyclohepta[e]indene] it was less than 10 nM; in that of `CCC1CCc2ccc3c(c21)CCNCC3` (stereo not shown) [Example 3, 1-Ethyl-1,2,3,6,7,8,9,10-octahydro-8-aza-cyclohepta[e]indene], less than 10 nM; in that of `FC1(F)Cc2ccc3c(c2C1)CCNCC3` [Example 42, 2,2-Difluoro-1,2,3,6,7,8,9,10-octahydro-8-aza-cyclohepta[e]indene], less than 10 nM.
`CCC1CCc2c(I)cc3c(c21)CCNCC3` (stereo not shown) [Example 7, 1-Ethyl-4-iodo-1,2,3,6,7,8,9,10-octahydro-8-aza-cyclohepta[e]indene]: the EC50 was less than 10 nM.
Still for that read-out and setting: in the case of `CC1CCc2ccc3c(c21)CCNCC3` (stereo not shown) [Example 2, 1-Methyl-1,2,3,6,7,8,9,10-octahydro-8-aza-cyclohepta[e]indene] it was less than 10 nM; in that of `CC1c2c(ccc3c2CCNCC3)CC1(F)F` (stereo not shown) [Example 32, 2,2-Difluoro-1-methyl-1,2,3,6,7,8,9,10-octahydro-8-aza-cyclohepta[e]indene], less than 10 nM.
Same read-out and setting: next, `COC1CCc2ccc3c(c21)CCNCC3` (stereo not shown) [Example 43, 1-Methoxy-1,2,3,6,7,8,9,10-octahydro-8-aza-cyclohepta[e]indene]: less than 10 nM; `CCC1COc2ccc3c(c21)CCNCC3` (stereo not shown) [Example 36, 1-Ethyl-1,2,7,8,9,10-hexahydro-6H-3-oxa-8-aza-cyclohepta[e]indene]: less than 10 nM.
`CCC1CCOc2ccc3c(c21)CCNCC3` (stereo not shown) [Example 37, 1-Ethyl-2,3,8,9,10,11-hexahydro-1H,7H-4-oxa-9-aza-cyclohepta[a]naphthalene] registered an EC50 of less than 10 nM.
Same read-out and setting: next, `COC1c2c(ccc3c2CCNCC3)CC1(F)F` (stereo not shown) [Example 38, 2,2-Difluoro-1-methoxy-1,2,3,6,7,8,9,10-octahydro-8-aza-cyclohepta[e]indene]: less than 10 nM; `CC1(C)CCc2c(-c3ccccc3)cc3c(c21)CCNCC3` [Example 35, 1,1-Dimethyl-4-phenyl-1,2,3,6,7,8,9,10-octahydro-8-aza-cyclohepta[e]indene]: less than 1000 nM.
As for `CCC1CCc2c(Cl)cc3c(c21)CCNCC3` (stereo not shown) [Example 6, 4-Chloro-1-ethyl-1,2,3,6,7,8,9,10-octahydro-8-aza-cyclohepta[e]indene], the EC50 was less than 10 nM.
Still for that read-out and setting: in the case of `Clc1cc2c(c3c1CCC3c1ccccc1)CCNCC2` (stereo not shown) [Example 10, 4-Chloro-1-phenyl-1,2,3,6,7,8,9,10-octahydro-8-aza-cyclohepta[e]indene] it was less than 10 nM; in that of `CCC1CCc2c(F)cc3c(c21)CCNCC3` (stereo not shown) [Example 8, 1-Ethyl-4-fluoro-1,2,3,6,7,8,9,10-octahydro-8-aza-cyclohepta[e]indene], less than 10 nM; in that of `CCC1c2c(ccc3c2CCNCC3)CC1(F)F` (stereo not shown) [Example 31, 1-Ethyl-2,2-difluoro-1,2,3,6,7,8,9,10-octahydro-8-aza-cyclohepta[e]indene], less than 10 nM.
Same read-out and setting: in the case of `CC1(C)c2c(ccc3c2CCNCC3)CC1(F)F` [Example 34, 2,2-Difluoro-1,1-dimethyl-1,2,3,6,7,8,9,10-octahydro-8-aza-cyclohepta[e]indene] it was less than 10 nM.

Staying with this experiment, now noted: 5-HT2c PI turnover potency of the more active isomer (where applicable); HEK 293 EBNA cells expressing INI isoform of human 5HT2c receptor; read-out: Potency at 5HT2c (INI isoform).
On to `Fc1ccc(C2c3c(ccc4c3CCNCC4)CC2(F)F)cc1` (stereo not shown) [Example 20, 2,2-Difluoro-1-(4-fluoro-phenyl)-1,2,3,6,7,8,9,10-octahydro-8-aza-cyclohepta[e]indene], for which the EC50 was less than 10 nM.
On the same count and under the same terms, next, `Cc1ccc(C2c3c(ccc4c3CCNCC4)CC2(F)F)cc1` (stereo not shown) [Example 17, 2,2-Difluoro-1-p-tolyl-1,2,3,6,7,8,9,10-octahydro-8-aza-cyclohepta[e]indene]: less than 100 nM; `FC1(F)Cc2ccc3c(c2C1Cc1ccccc1)CCNCC3` (stereo not shown) [Example 33, 1-Benzyl-2,2-difluoro-1,2,3,6,7,8,9,10-octahydro-8-aza-cyclohepta[e]indene]: less than 10 nM.
Same read-out and setting: next, `FC1(F)Cc2ccc3c(c2C1c1cccc(Cl)c1)CCNCC3` (stereo not shown) [Example 23, 1-(3-Chloro-phenyl)-2,2-difluoro-1,2,3,6,7,8,9,10-octahydro-8-aza-cyclohepta[e]indene]: less than 10 nM; `FC(F)(F)Oc1cccc(C2c3c(ccc4c3CCNCC4)CC2(F)F)c1` (stereo not shown) [Example 19, 2,2-Difluoro-1-(3-trifluoromethoxy-phenyl)-1,2,3,6,7,8,9,10-octahydro-8-aza-cyclohepta[e]indene]: less than 10 nM.
In the case of `FC1(F)Cc2ccc3c(c2C1C1CC1)CCNCC3` (stereo not shown) [Example 22, 1-Cyclopropyl-2,2-difluoro-1,2,3,6,7,8,9,10-octahydro-8-aza-cyclohepta[e]indene], the EC50 was less than 10 nM.
Still for that read-out and setting: next, `c1cc2c(c3c1CCNCC3)C(C1CC1)CC2` (stereo not shown) [Example 4, 1-Cyclopropyl-1,2,3,6,7,8,9,10-octahydro-8-aza-cyclohepta[e]indene]: less than 10 nM; `Fc1cccc(C2c3c(ccc4c3CCNCC4)CC2(F)F)c1` (stereo not shown) [Example 21, 2,2-Difluoro-1-(3-fluoro-phenyl)-1,2,3,6,7,8,9,10-octahydro-8-aza-cyclohepta[e]indene]: less than 10 nM; `Fc1cc2c(c3c1CCC3c1cccnc1)CCNCC2` (stereo not shown) [Example 12, 4-Fluoro-1-pyridin-3-yl-1,2,3,6,7,8,9,10-octahydro-8-aza-cyclohepta[e]indene]: less than 10 nM.
Still for that read-out and setting: in the case of `Cc1ccccc1C1c2c(ccc3c2CCNCC3)CC1(F)F` (stereo not shown) [Example 15, 2,2-Difluoro-1-o-tolyl-1,2,3,6,7,8,9,10-octahydro-8-aza-cyclohepta[e]indene] it was less than 10 nM.
On the same count and under the same terms, in the case of `COc1ccccc1C1c2c(ccc3c2CCNCC3)CC1(F)F` (stereo not shown) [Example 25, 2,2-Difluoro-1-(2-methoxy-phenyl)-1,2,3,6,7,8,9,10-octahydro-8-aza-cyclohepta[e]indene] it was less than 10 nM; in that of `Cc1cccc(C2c3c(ccc4c3CCNCC4)CC2(F)F)c1` (stereo not shown) [Example 16, 2,2-Difluoro-1-m-tolyl-1,2,3,6,7,8,9,10-octahydro-8-aza-cyclohepta[e]indene], less than 10 nM.
On to `c1ccc(-c2coc3ccc4c(c23)CCNCC4)cc1` [Example 39, 1-Phenyl-7,8,9,10-tetrahydro-6H-3-oxa-8-aza-cyclohepta[e]indene], for which the EC50 was less than 10 nM.
Still for that read-out and setting: next, `COc1ccc(C2c3c(ccc4c3CCNCC4)CC2(F)F)cc1` (stereo not shown) [Example 27, 2,2-Difluoro-1-(4-methoxy-phenyl)-1,2,3,6,7,8,9,10-octahydro-8-aza-cyclohepta[e]indene]: less than 100 nM; `FC1(F)Cc2ccc3c(c2C1c1ccncc1)CCNCC3` (stereo not shown) [Example 29, 2,2-Difluoro-1-pyridin-4-yl-1,2,3,6,7,8,9,10-octahydro-8-aza-cyclohepta[e]indene]: less than 1000 nM.
For `FC1(F)Cc2ccc3c(c2C1c1ccc(Cl)cc1)CCNCC3` (stereo not shown) [Example 24, 1-(4-Chloro-phenyl)-2,2-difluoro-1,2,3,6,7,8,9,10-octahydro-8-aza-cyclohepta[e]indene], the EC50 was less than 10 nM.
On the same count and under the same terms, next, `c1ccc(C2CCc3ccc4c(c32)CCNCC4)cc1` (stereo not shown) [Example 9, 1-Phenyl-1,2,3,6,7,8,9,10-octahydro-8-aza-cyclohepta[e]indene]: less than 10 nM.
Same read-out and setting: next, `FC1(F)Cc2ccc3c(c2C1c1cccnc1)CCNCC3` (stereo not shown) [Example 28, 2,2-Difluoro-1-pyridin-3-yl-1,2,3,6,7,8,9,10-octahydro-8-aza-cyclohepta[e]indene]: less than 10 nM; `FC1(F)Cc2ccc3c(c2C1c1ccccc1)CCNCC3` (stereo not shown) [Example 14, 2,2-Difluoro-1-phenyl-1,2,3,6,7,8,9,10-octahydro-8-aza-cyclohepta[e]indene]: less than 10 nM; `COc1cccc(C2c3c(ccc4c3CCNCC4)CC2(F)F)c1` (stereo not shown) [Example 26, 2,2-Difluoro-1-(3-methoxy-phenyl)-1,2,3,6,7,8,9,10-octahydro-8-aza-cyclohepta[e]indene]: less than 10 nM.
`FC1(F)Cc2c(Cl)cc3c(c2C1c1cccnc1)CCNCC3` (stereo not shown) [Example 30, 4-Chloro-2,2-difluoro-1-pyridin-3-yl-1,2,3,6,7,8,9,10-octahydro-8-aza-cyclohepta[e]indene]: the EC50 was less than 10 nM.
On the same count and under the same terms, in the case of `c1cncc(C2CCc3ccc4c(c32)CCNCC4)c1` (stereo not shown) [Example 11, 1-Pyridin-3-yl-1,2,3,6,7,8,9,10-octahydro-8-aza-cyclohepta[e]indene] it was less than 10 nM; in that of `FC(F)(F)c1cccc(C2c3c(ccc4c3CCNCC4)CC2(F)F)c1` (stereo not shown) [Example 18, 2,2-Difluoro-1-(3-trifluoromethyl-phenyl)-1,2,3,6,7,8,9,10-octahydro-8-aza-cyclohepta[e]indene], less than 10 nM; in that of `c1csc(C2CCc3ccc4c(c32)CCNCC4)n1` (stereo not shown) [Example 40, 1-Thiazol-2-yl-1,2,3,6,7,8,9,10-octahydro-8-aza-cyclohepta[e]indene], less than 10 nM.
